Patent publication US6602867B1, “Triazole compounds with dopamine-D3-receptor affinity” (Abbott Laboratories, priority 1999, dated 2003)
Counter-ions that a name gives are not always drawn.

Tests used:
[1] = target: T1, human D3-receptor (Homo sapiens, UniProt P35462); assay: D3 binding test (125iodosulpiride, membranes of CCL 1,3 mouse fibroblasts); details: negative logarithm of the affinity constant for the D3 receptor; read-out: pKi (D3) (converted)
T1 construct: host or cells: CCL 1,3 mouse fibroblasts
T1 sequence (P35462 whole entry): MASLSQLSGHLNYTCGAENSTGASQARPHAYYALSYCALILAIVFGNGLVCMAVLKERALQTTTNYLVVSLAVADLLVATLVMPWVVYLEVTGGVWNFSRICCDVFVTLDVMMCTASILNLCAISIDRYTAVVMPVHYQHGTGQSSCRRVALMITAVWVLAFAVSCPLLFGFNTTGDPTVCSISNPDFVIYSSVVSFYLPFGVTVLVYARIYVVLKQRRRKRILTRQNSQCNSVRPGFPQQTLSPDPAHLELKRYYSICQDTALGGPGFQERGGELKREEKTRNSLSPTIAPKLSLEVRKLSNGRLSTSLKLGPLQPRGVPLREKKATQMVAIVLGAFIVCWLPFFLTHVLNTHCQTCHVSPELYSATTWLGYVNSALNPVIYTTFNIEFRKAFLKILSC
Experimental: Cloned human D3-receptor-expressing CCL 1,3 mouse fibroblasts, obtainable from Res. Biochemicals Internat. One Strathmore Rd., Natick, Mass. 01760-2418 USA, were used for the binding studies.
The D3-expressing cells were multiplied in RPMI-1640 containing 10% fetal calf serum (GIBCO No. 041-32400 N); 100 U of penicillin/ml and 0.2% streptomycin (GIBO BRL, Gaithersburg, Md., USA). After 48 h, the cells were washed with PBS and incubated for 5 min with 0.05% trypsin-containing PBS. After that, the solution was neutralized with medium and the cells were collected by centrifuging at 300 g. In order to lyse the cells, the pellet was washed briefly with lysis buffer (5 mM Tris-HCl, pH 7.4, containing 10% glycerol) and after that incubated, at 4° C. for 30 min, at a concentration of 10^7 cells/ml of lysis buffer. The cells were centrifuged at 200 g for 10 min and the pellet was stored in liquid nitrogen.
For the D3-receptor binding test, the membranes were suspended in incubation buffer (50 mM Tris-HCl, pH 7.4, containing 120 mM NaCl, 5 mM KCl, 2 mM CaCl2, 2 mM MgCl2, 10 μM quinolinol, 0.1% ascorbic acid and 0.1% BSA), at a concentration of approx. 10^6 cells/250 μl of test mixture, and incubated at 30° C. with 0.1 nM ^125iodosulpiride in the presence and absence of the test substance. The nonspecific binding was determined using 10^−6 M spiperone.
After 60 min, the free radioligand and the bound radioligand were separated by filtering through GF/B glass fiber filters (Whatman, England) on a Skatron cell harvester (Skatron, Lier, Norway), and the filters were washed with ice-cold Tris-HCl buffer, pH 7.4. The radioactivity which had collected on the filters was quantified using a Packard 2200 CA liquid scintillation counter.
The Ki values were determined by means of nonlinear regression analysis using the LIGAND program.

[2] = target: T2, human dopamine D2A receptors (Homo sapiens, UniProt P14416); assay: D2 binding test (125I-spiperone, HEK-293 cells); details: selectivity versus D2 receptor, Ki(D2)/Ki(D3)
T2 construct: expressed in transfected cells; host or cells: HEK-293 cells
T2 sequence (P14416 whole entry): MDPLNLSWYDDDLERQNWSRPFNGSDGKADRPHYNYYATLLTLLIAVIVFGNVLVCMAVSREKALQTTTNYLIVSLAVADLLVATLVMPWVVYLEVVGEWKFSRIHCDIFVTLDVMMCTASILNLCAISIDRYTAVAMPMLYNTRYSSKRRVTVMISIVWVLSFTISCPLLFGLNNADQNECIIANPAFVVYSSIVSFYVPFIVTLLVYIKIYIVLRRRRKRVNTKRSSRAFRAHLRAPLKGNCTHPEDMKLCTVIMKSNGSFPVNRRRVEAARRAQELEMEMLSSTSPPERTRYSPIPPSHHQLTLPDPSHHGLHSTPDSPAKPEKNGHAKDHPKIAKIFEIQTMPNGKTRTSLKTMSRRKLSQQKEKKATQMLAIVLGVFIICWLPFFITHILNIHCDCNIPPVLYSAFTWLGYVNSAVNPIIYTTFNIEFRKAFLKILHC
Experimental: All the media contained 100 units of penicillin […] and 100 μg/ml of streptomycin/ml. The cells were maintained at 37° C. in a moist atmosphere containing 5% CO2.
The cells were prepared for the binding studies by trypsinizing them (0.05% solution of trypsin) at room temperature for 3-5 minutes. After that, the cells were centrifuged at 250 g for 10 minutes and treated with lysis buffer (5 mM Tris-HCl, 10% glycerol, pH 7.4) at 4° C. for 30 minutes. After centrifuging at 250 g for 10 minutes, the residue was stored at −20° C. until used.
Low affinity state dopamine D2 receptor using ^125I-spiperone (81 TBq/mmol, Du Pont de Nemours, Dreieich)
The test mixtures (1 ml) consisted of 1×10^5 cells in incubation buffer (50 mM Tris, 120 mM NaCl, 5 mM KCl, 2 mM MgCl2 and 2 mM CaCl2, pH 7.4 with HCl) and […] ^125I-spiperone (total binding) or additionally 1 μM haloperidol (nonspecific binding) or test substance.
After the test mixtures had been incubated at 25° C. for 60 minutes, they were filtered through GM/B glass filters (Whatman, England) on a Skatron cell harvester (from Zinsser, Frankfurt), and the filters were washed with ice-cold 50 mM Tris-HCl buffer, pH 7.4. The radioactivity which had collected on the filters was quantified using a Packard 2200 CA liquid scintillation counter.
The results were evaluated as described in a).
The Ki values were determined by way of nonlinear regression analysis using the LIGAND program or by converting the IC50 values using the Cheng and Prusoff formula.

| SMILES | Ki [1] | melting point | Selectivity [2] |
| --- | --- | --- | --- |
| Cn1c(SCCCN2CCc3ccc(S(=O)(=O)N4CCCCC4)cc3C2)nnc1-c1ccccc1 [Example 4, 2-{3-[(4-Methyl-5-phenyl-4H-1,2,4-triazol-3-yl)sulfanyl]propyl}-7-(piperidin-1-ylsulfonyl)-1,2,3,4-tetrahydroisoquinoline] | 11 nM | 105 to 108 °C | 67 |
| Cn1c(SCCCN2CCc3cc(Cl)ccc3C2)nnc1-c1ccsc1 [Example 39, 6-Chloro-2-{3-[(4-methyl-5-thien-3-yl-4H-1,2,4-triazol-3-yl)-sulfanyl]propyl}-1,2,3,4-tetrahydroisoquinoline] |  | 99 to 100 °C |  |
| Cl.Cn1c(SCCCN2CCc3cc(C(F)(F)F)ccc3C2)nnc1-c1ccsc1 |  | 184 to 185 °C |  |
| Cn1c(SCCCN2CCc3cc(Cl)c(Cl)cc3C2)nnc1-c1ccccc1 [Example 28, 6,7-Dichloro-2-{3-[(4-methyl-5-phenyl-4H-1,2,4-triazol-3-yl)-sulfanyl]propyl}-1,2,3,4-tetrahydroisoquinoline] |  | 138 to 139 °C |  |
| Cl.Cn1c(CCCCN2CCc3ccc(C#N)cc3C2)nnc1-c1ccccc1 |  | 175 °C |  |
| CCN(CC)CCOc1cccc2c1CCN(CCCSc1nnc(-c3ccccc3)n1C)C2.Cl.Cl |  | 110 to 112 °C |  |
| COc1ccc2c(c1)CCN(CCCSc1nnc(-c3ccccc3)n1C)C2 [Example 3, 2-{3-[(4-Methyl-5-phenyl-4H-1,2,4-triazol-3-yl)sulfanyl]propyl}-6-methoxy-1,2,3,4-tetrahydroisoquinoline] | 9.55 nM |  | 78 |
| Cn1c(SCCCN2CCc3ccc(S(=O)(=O)NCc4ccccc4)cc3C2)nnc1-c1cccnc1 (as salt: HCl) [Example 10, N-Benzyl-2-{3-[(4-methyl-5-pyridin-3-yl-4H-1,2,4-triazol-3-yl)-sulfanyl]propyl}-1,2,3,4-tetrahydroisoquinoline-7-sulfonamide] |  | 81 to 84 °C |  |
| COc1ccc2c(c1)CCN(CCCSc1nnc(-c3ccc[nH]3)n1C)C2 [Example 2, 6-Methoxy-2-{3-[(4-methyl-5-pyrrol-2-yl-4H-1,2,4-triazol-3-yl)-sulfanyl]propyl}-1,2,3,4-tetrahydroisoquinoline] |  | 179 to 181 °C |  |
| Cl.Cn1c(SCCCN2CCc3ccc(C(F)(F)F)cc3C2)nnc1-c1ccccc1 |  | 205 to 207 °C |  |
| CCN(CC)Cc1ccc2c(c1)CN(CCCSc1nnc(-c3ccccc3)n1C)CC2.Cl.Cl |  | 75 °C |  |
| Cl.Cl.Cn1c(SCCCN2CCc3ccccc3C2)nnc1-c1cccnc1 |  | 87 to 89 °C |  |
| Cn1c(SCCCN2CCc3ccc(C#N)cc3C2)nnc1-c1ccccc1 [Example 7, 2-{3-[(4-Methyl-5-phenyl-4H-1,2,4-triazol-3-yl)sulfanyl]propyl}-1,2,3,4-tetrahydroisoquinoline-7-carbonitrile] | 4.27 nM | 116 to 118 °C | 81 |
| Cn1c(SCCCN2CCc3ccc(S(=O)(=O)Nc4ccccc4)cc3C2)nnc1-c1cccnc1 [Example 25, 2-{3-[(4-Methyl-5-pyridin-3-yl-4H-1,2,4-triazol-3-yl)sulfanyl]-propyl}-N-phenyl-1,2,3,4-tetrahydroisoquinoline-7-sulfonamide] |  | 58 to 61 °C |  |
| Cc1ncsc1-c1nnc(SCCCN2CCc3ccc(S(=O)(=O)NCc4ccccc4)cc3C2)n1C [Example 9, N-Benzyl-2-(3-{[4-methyl-5-(4-methyl-1,3-thiazol-5-yl)-4H-1,2,4-triazol-3-yl]sulfanyl}propyl)-1,2,3,4-tetrahydroisoquinoline-7-sulfonamide] |  | 67 to 70 °C |  |
| Cc1ncsc1-c1nnc(SCCCN2CCc3ccc(S(=O)(=O)Nc4ccccc4)cc3C2)n1C [Example 26, 2-(3-{[4-Methyl-5-(4-methyl-1,3-thiazol-5-yl)-4H-1,2,4-triazol-3-yl]sulfanyl}propyl)-N-phenyl-1,2,3,4-tetrahydroisoquinoline-7-sulfonamide] |  | 77 to 81 °C |  |
| Cn1cccc1-c1nnc(SCCCN2CCc3ccc(S(=O)(=O)N4CCCCC4)cc3C2)n1C [Example 35, 2-(3-{[4-Methyl-5-(1-methyl-1H-pyrrol-2-yl)-4H-1,2,4-triazol-3-yl]sulfanyl}propyl)-7-(piperidin-1-ylsulfonyl)-1,2,3,4-tetrahydroisoquinoline] |  | 96 to 100 °C |  |
| C=C(CSc1nnc(-c2ccccc2)n1C)CN1CCc2ccc([N+](=O)[O-])cc2C1.Cl |  | 146 to 150 °C |  |
| COC(=O)c1ccc2c(c1)CN(CCCSc1nnc(-c3ccccc3)n1C)CC2.O=C(O)C(=O)O |  | 160 to 163 °C |  |
| Cn1c(SCCCN2CCc3ccc(NS(C)(=O)=O)cc3C2)nnc1-c1ccccc1 (as salt: HCl) [Example 84, N-[2-(3-{[4-Methyl-5-phenyl-4H-1,2,4-triazol-3-yl]sulfanyl}-propyl)-1,2,3,4-tetrahydroisoquinolin-7-yl]methansulfonamide] |  | 90 °C |  |
| Cn1c(SCCCN2CCc3ccc(S(=O)(=O)N4CCCC(C)(C)C4)cc3C2)nnc1-c1ccccc1 [Example 49, 7-[(3,3-Dimethylpiperidin-1-yl)sulfonyl]-2-{3-[(4-methyl-5-phenyl-4H-1,2,4-triazol-3-yl)sulfanyl]propyl}-1,2,3,4-tetrahydroisoquinoline] |  | 75 to 76 °C |  |
| COc1cccc2c1CCN(CCCSc1nnc(-c3ccccc3)n1C)C2 [Example 11, 5-Methoxy-2-{3-[(4-methyl-5-phenyl-4H-1,2,4-triazol-3-yl)-sulfanyl]propyl}-1,2,3,4-tetrahydroisoquinoline] |  | 73 to 75 °C |  |
